The results in this text go back to US8106038B2, “Method for reducing or preventing PDT related inflammation” (QLT Inc., priority 2001, dated 2012).

For one series, the system named is macrophages. Conditions: rabbit, in vivo. The method, then: Tetracaine HCI (0.5%) was used for topical anesthesia.
All eyes were enucleated immediately after euthanasia. […] Serial cryosections were cut and stored at −70° C. Non-treated eyes were used for control. Cryosections were stained with H&E and immunohistochemical staining.

Series [1] deals with normal rabbit choroid. Conditions: in vivo.
Procedure: (§1) Twelve pigmented rabbits weighing between 2 and 4 kg were used. Animals were anesthetized with ketamine HCI (40 mg/kg) and xylocaine (5 mg/kg). Tetracaine HCI (0.5%) was used for topical anesthesia. Tropicamide (1%) and phenylephrine (2.5%) eye drops were used for pupillary dilation. Euthanasia was accomplished with sodium pentobarbital (150 mg/kg) intracardiac injection. Two rabbits were sacrificed at day 2, 7, 14, 28, 42 and 56 following PDT.
(§2) Ten rabbits were injected intravenously with 2 mg/kg BPD-MA, and 689 nm laser light at 600 mW/cm^2 was successively applied on three 1.25-mm spot in one eye according to the following schedule:
Following PDT, animals were kept in a dark room overnight.
Fluorescein angiography (FA) and fundus photography were performed as 2 baseline before PDT, the day after PDT, weekly, and at the day of sacrifice.
(§3) Normal-dose PDT was performed as phase 1 in three rabbits.
(§4) Immediately after each individual light treatment with normal-dose PDT, 5 mm Spot concentric with the 1.25 mm spot was exposed to 15 J/cm^2 (25 sec) in three rabbits. FA and fundus photography was taken as phase 1, and animals were sacrificed for immunohistochemical study at day 28 following PDT.
For series [2], the system named is normal rabbit choroid. The settings on record: in vivo. This is another data set of the same source.
Procedure: as §1, §2
(§5) All eyes were enucleated immediately after euthanasia. After the cornea, lens, and vitreous were removed, experimental area was delineated with sharp cuts. Tissue was placed in freezing compound (OCT) and frozen in liquid nitrogen. Serial cryosections were cut and stored at −70° C. Non-treated eyes were used for control. Cryosections were stained with H&E and immunohistochemical staining.
In the next series the test system is CD4 positive cells. Conditions: rabbit, in vivo.
The subject of another series is CD8 positive cells. Conditions: rabbit, in vivo.
For the next series, the system named is MHC-II positive cells. Conditions: rabbit, in vivo.
The test system of series [3] is CD4, CD8, Macrophage and MHC-II positive cells. In words: Immunohistochemistry of inflammatory cells after PDT (combined statements).
Procedure: as §1, §2, §5
Frozen sections were thawed and fixed with fresh acetone for 5 minutes. Endogenous peroxide activity was blocked with 0.3% hydrogen peroxide in phosphate buffered saline (PBS). After blocked with PBS and 1% bovine serum albumin (BSA), the specific primary antibodies were diluted in PBS with 1% BSA and incubated at room temperature for an hour. Detection was achieved using ABC Elite detection kit (DAKO) with aminoethylcarbizole as the chromogen. Sections were counterstained with light Mayers' hematoxylin, washed with tap water, and mounted in water soluble mounting medium (Biomeda, Catalogue no. MO1).
as §3, §4

Procedure for CD4 positive cells: as §1, §2, §5
(§6) Frozen sections were thawed and fixed with fresh acetone for 5 minutes. Endogenous peroxide activity was blocked with 0.3% hydrogen peroxide in phosphate buffered saline (PBS). After blocked with PBS and 1% bovine serum albumin (BSA), the specific primary antibodies were diluted in PBS with 1% BSA and incubated at room temperature for an hour. […]
Procedure for CD8 positive cells: as §1, §2, §5, §6

Regarding “9-methyl (I) and 13-methyl (II) trans-(±)-18-ethenyl-4,4a-dihydro-3,4-bis(methoxycarbonyl)-4a,8,14,19-tetramethyl-23H,25H-benzo[b]porphine-9,13-dipropanoate [BPD-MA]”, in the series on macrophages, the “Macrophage positive cells after the additional low-dose PDT” value is given as “slightly increased” and the “change of macrophages versus control” value is “statistically significantly increased”. The “neovascular leakage on fluorescein angiography” value in the series with normal rabbit choroid [1] is reported as “no neovascular leakages”. In addition, in the series with normal rabbit choroid [2], the “dependence of histologic damage on dose of light” value is given as “more severe with the higher dose of light”; the “histologic damage of RPE layer, photoreceptor layer, outer nuclear and plexiform layer” value is recorded as “damaged in all cases”; the “histologic damage of inner nuclear layer” value is “a little damages but generally preserved well”; the “state of choriocapillaries and larger choroidal vessels after PDT” value is recorded as “collapsed after PDT, but not the larger choroidal vessels”. Further, in the series with normal rabbit choroid [2], the “time for RPE layer to begin to become a monolayer again” value is “in two weeks”. Also, in the series on CD4 positive cells, the “change of CD4 positive cells in treated area” value is listed as “no significant increase” and the “change of CD4 positive cells versus control” value is “statistically significantly increased”. In addition, the “change of CD8 positive cells versus control” value in the series with CD8 positive cells is reported as “statistically significantly increased”. Also, the “change of MHC-II positive cells versus control” value with MHC-II positive cells is “statistically significantly increased”. In series [3] (normal rabbit choroid), the “persistence of inflammatory reactions after therapeutic PDT” value is not above 56 days. Also, the “change of CD4, CD8, Macrophage and MHC-II positive cells compared to control” value in series [3] (rabbit, Phase 2, 4 weeks after low-dose PDT) is on record as “slightly increased”. The “effect of additional concentric large diameter low-dose PDT on the increase in CD4, CD8, Macrophage and MHC-II positive cells after normal-dose PDT” value in series [3] (rabbit, Phase 3, day 28) is reported as “suppressed the increase”. In addition, in series [3] (rabbit, low dose light 15 J/cm^2), the “effect of low dose light following therapeutic PDT on inflammation” value is reported as “effectively inhibited the increase in inflammation”.
